Data on 1 compound can be found in BindingDB's records for patent US20240132503 (Ocumension Therapeutics (Suzhou) Co., 2024).

For the experiment, the target named is Tyrosine-protein kinase SYK (Homo sapiens, UniProt P43405). Kind of experiment: In Vitro Evaluation of Inhibitory Activity Against Syk Protein Kinase. The protocol:
Test Procedure and Method:(a) Compound dilution and microplate injection1) Compound powder was weighed and dissolved in a specific amount of DMSO at an initial concentration of 10 mM.2) The compound was diluted to have a concentration of 0.74 mM, POD18 was used for microplate injection by 135 nL per well, an initial concentration of the compound was 10 μM, and 11 concentrations and 3-fold descending serial dilution were carried out.(b) Reaction stage of enzyme and substrate1) Preparation of test buffer dilution: 5×HTRF buffer in the kit was diluted to 1×HTRF buffer, and a specified amount of DTT and MgCl2 solution were added for later use.2) A Syk enzyme reaction solution was prepared with 1×HTRF buffer, so that a final reaction concentration of Syk kinase was 0.0156 ng/μL.3) A TK-Substrate-biotin/ATP mixture was prepared, so that a final substrate concentration was controlled to be 0.2 μM. An ATP concentration was controlled to be 2 μM.4) A mutidorp injector was used to add the sample, 5 μL of Syk enzyme solution and TK-Substrate-biotin/ATP mixture were added to each well, and incubated at 23° C. for 1 hour.

`c1cc(N2CCOCC2)ccc1NC1=Nc2ccc(-c3cn[nH]c3)cc2N2CCN=C12` [US20240132503, Compound Crystal form A Compound Formula 1] showed an IC50 of 25 nM. That is a double-digit nanomolar value.
